Reference: US7005447B2, “Food product comprising hydroxymatairesinol” (Hormos Nutraceutical Oy Ltd., priority 1999, dated 2006)
Like-named read-outs stand apart in the source and are kept apart here.

Legend:
[1] = test system: intact and hypoandrogenic Noble strain male rats; assay: Estrogenic and antiestrogenic activity in adult male rats (intact and hypoandrogenic); assay type: in vivo, rat; conditions: for Body weight / Coaculating gland relative weight / Seminal vesicle relative weight / Testis relative weight / Ventral Prostate relative weight: HMR 50 mg/kg daily; for Body weight / Coaculating gland relative weight / Seminal vesicle relative weight / Testis relative weight / Ventral Prostate relative weight / Pituitary LH (μg/pit) / Serum LH / Serum testosterone / Testis testosterone (ng/testis): four weeks, mean ± SD; for Pituitary LH (μg/pit) / Serum LH / Serum testosterone / Testis testosterone (ng/testis): 50 mg/kg HMR
Description: Estrogenic (antiandrogenic) and antiestrogenic effects of HMR were studied in intact and hypoandrogenic Noble strain male rats (age 6–9 month), correspondingly. The chronic hypoandrogenic state with both structural and functional changes in the male reproductive tract was induced by neonatal estrogenization (diethylstilbestrol, 10.0 μg/kg body weight in rape oil s.c. on postnatal days 1–5). These changes are known to be partly reversible by aromatase inhibitor treatment consisting daily dose of MPV-2213 ad 10–30 mg/kg body weight (Streng et al. unpublished observations).
Twelve of both intact and hypoandrogenic animals were cavaged in daily dosage of HMR 50 mg/kg body weight in rape oil. Another twelve animals from both animal models were cavaged with rape oil only as a placebo treatment. After four-week treatment the animals were sacrificed. The weights of testis and accessory sex glands (ventral prostate, seminal vesicles and coagulating gland) were measured. Serum and testis testosterone and pituitary and serum luteinizing hormone (LH) levels were measured by immunoassays (Haavisto et al. 1993).

[2] = test system: tert-butylhydroperoxide-induced lipid peroxidation (t-BuOOH-LP) in rat liver microsomes; assay: Inhibition of tert-butylhydroperoxide-induced lipid peroxidation (t-BuOOH-LP), chemiluminescence; assay type: biochemical
Description: Inhibition of lipid peroxidation was evaluated on the basis of their potency to inhibit tert-butylhydroperoxide-induced lipid peroxidation (t-BuOOH-LP) in rat liver microsomes in vitro (Ahotupa et al. 1997). The test for the t-BuOOH-LP was carried out as follows: The buffer (50 mM sodium carbonate, pH 10.2, with 0.1 mM EDTA) was pipetted in a volume of 0.8 ml in the luminometer cuvette. Twenty microliters of diluted liver microsomes, final concentration 1.5 mg protein/ml, was added, followed by […] of luminol (0.5 mg/ml) and test chemicals. The test compounds were added to incubation mixtures in a small volume diluted in ethanol or dimethylsulphoxide (2% of incubation volume), and the lipid peroxidation potency was compared to that of the vehicle (ethanol or dimethyl sulphoxide). The reaction was initiated by 0.05 ml of 0.9 mM t-BuOOH at 33° C. Chemiluminescence was measured for about 45 min at 1 min cycles, and the area under curve (integral) was calculated. Chemiluminescence measurements were carried out using a Bio-Orbit 1251 Luminometer (Bio-Orbit, Turku, Finland) connected to a personal computer using dedicated software for the assays.

[3] = Superoxide anion scavenging (xanthine-xanthine oxidase system, chemiluminescence); assay type: biochemical; conditions: read-out: Superoxide anion scavenging, IC-50
Description: Superoxide anion scavenging method was based on the superoxide anion produced in controlled conditions by xanthine-xanthine oxidase system and detection of the generated reactive oxygen species by luminometer (Ahotupa et al., 1997). The ability of test compounds to decrease the chemiluminescence was evaluated. IC-50 concentration (concentration which prevented the chemiluminescence by 50%) was calculated.

[4] = Analysis of metabolites from rat urine after different doses of HMR (GC-MS); assay type: in vivo; conditions: 24 hour urine
Description: Ten Sprague—Dawley male rats (age 4 month) were used to study the metabolism of HMR in vivo. Animals were housed in pairs with 12 h light:dark cycle and had free access to water and soy-free basal diet (SDS, Whitham Essex, England) during the metabolism study.
Rats were cavaged with HMR dissolved in 10% ethanol in PEG in doses 3, 15, 25 and 50 mg/kg body weight once a day for two days. After second cavaging the 24 hour urine was collected in metabolic cages in collection jars containing 120 μl 0.56 M ascorbic acid and 120 μl 0.15 M Na-azide as preservatives. The centrifuged urine volumes were measured and stored in −20° C. For pretreatment 750 μl 0.2 M acetate buffer (pH 4.0±0.1) was added to 3.0 ml thawed urine aliquots. Sep-Pak C18 columns (100 mg silica based resin/column) were used for urine extractions. Columns were preconditioned with 3.0 ml H2O, 3.0 ml methanol and 3.0 ml acetate buffer. After urine had filtered through the column and washed with 3.0 ml of acetate buffer polyphenolics were eluted with 3.0 ml methanol. The eluate was evaporated to dryness under nitrogen in +45° C. water bath and dryed residues were redissolved in 3.0 ml of 0.2 M acetate buffer. 30 μl Helix pomatia enzyme mix was added and the solutions were incubated in +37° C. to hydrolyze both glucuronides and sulfates. 300 μl of flavone stock solution (100 μg/ml in EtOH) was added into hydrolyzed samples. The samples were extracted in C-18 columns and evaporated to dryness as described above and stored in −20° C. until analyzed with GC-MS.
The evaporated urine samples were dissolved in pyridine, and silylated by adding BSTFA:TMCS (10:1) silylation reagent. The GC-MS analyses of the silylated samples were performed with an HP 6890-5973 GC-MS instrument. The GC column was an HP-1 crosslinked methyl polysiloxane column (15 m×0.25 mm i.d., 0.25 μm film thickness). Helium was used as carrier gas at a flow of 1 ml/min. […] The quantitative calculations were based on uncorrected peak areas of target components relative to the internal standard.

[5] = control and hypoandrogenic animals, 4-week treatment, versus placebo

In the case of `COc1cc(CC2C(=O)OCC2C(O)c2ccc(O)c(OC)c2)ccc1O` (centres unmarked) [HMR, hydroxymatairesinol], the “Changes in testosterone or LH concentrations” value [1, 5] is reported as “no significant changes”, the “Changes in the weights of accessory sex glands and testis” value [1, 5] is reported as “no significant changes” and the Body weight ([1]; hypoandrogenemic (neonatally estrogenized) male rats) is reported as 455 ± 36 g. For the same molecule, the “Coaculating gland relative weight” value ([1]; hypoandrogenemic male rats) was 70 ± 30 mg/kg body weight, the “Seminal vesicle relative weight” value ([1]; hypoandrogenemic male rats) was 266 ± 49 mg/kg body weight and the Testis relative weight ([1]; hypoandrogenemic male rats) was 3276 ± 327 mg/kg body weight. The “Ventral Prostate relative weight” value ([1]; hypoandrogenemic male rats) was 378 ± 198 mg/kg body weight, the “Pituitary LH (μg/pit)” value ([1]; hypoandrogenic male rats) was 7.530 ± 2.286 μg/pit and the “Serum LH” value ([1]; hypoandrogenic male rats) was 0.854 ± 0.333 ng/mL. The “Serum testosterone” value ([1]; hypoandrogenic male rats) was 0.939 ± 0.431 ng/mL, the “Testis testosterone (ng/testis)” value ([1]; hypoandrogenic male rats) was 48.0 ± 15.2 ng/testis and the “Pituitary LH (μg/pit)” value ([1]; intact male rats) was 6.838 ± 2.061 μg/pit. For the same molecule, the “Serum LH” value ([1]; intact male rats) was 1.088 ± 0.352 ng/mL, the “Serum testosterone” value ([1]; intact male rats) was 2.770 ± 1.421 ng/mL and the “Testis testosterone (ng/testis)” value ([1]; intact male rats) was 112.9 ± 58.5 ng/testis. The Body weight ([1]; intact male rats) was 447 ± 38 g, the “Coaculating gland relative weight” value ([1]; intact male rats) was 204 ± 48 mg/kg body weight and the “Seminal vesicle relative weight” value ([1]; intact male rats) was 419 ± 59 mg/kg body weight. The Testis relative weight ([1]; intact male rats) was 4223 ± 304 mg/kg body weight, the “Ventral Prostate relative weight” value ([1]; intact male rats) was 938 ± 148 mg/kg body weight and the IC50 ([2]; Table 3 comparison with known antioxidants, read-out: Inhibition of lipid peroxidation, IC-50) was 60 nM. The IC50 ([2]; lipid peroxidation inhibition test, rat liver microsomes, Table 2, read-out: Antioxidative capacity (t-BuOOH-LP) IC50) was 80 nM, the IC50 [3] was 5.6 µM and the “Main excreting metabolite in urine” value ([4]; male rats, 3, 15, 25 and 50 mg/kg once a day for two days, FIG. 5) was “enterolactone”. For the same molecule, the “Relation between doses of HMR and amounts of urinary enterolactone” value ([4]; male rats, 3 to 50 mg/kg) was “linear correlation” and the “Unmetabolized HMR and other metabolites (enterodiol and 7-hydroxyenterolactone) found in urine” value ([4]; male rats, unchanged when daily dose increased) was “Only minute amounts”.
